Patent publication US10604535B2, “Compounds, compositions and methods” (Denali Therapeutics Inc., priority 2016, dated 2020)

Each compound was assayed on FADD-deficient Jurkat cells (assay: Cellular necroptosis assay (human TNFα-induced necrosis, CellTiter-Glo)). Conditions: Homo sapiens, Jurkat, 48 h, TNFα 10 ng/mL, read-out: Cell IC50.
Type: cell-based
With `O=C(N[C@H]1COc2ccccc2-n2ccnc21)c1nnc(Cc2ccccc2)[nH]1` [Example 68A, (R)-5-benzyl-N-(4,5-dihydrobenzo[b]imidazo[1,2-d][1,4]oxazepin-4-yl)-4H-1,2,4-triazole-3-carboxamide] the IC50 was 0.1 to 1000 nM. Compound `O=C(N[C@H]1CCc2ccccc2-n2cnnc21)c1nnc(Cc2ccccc2)[nH]1` [Example 69A, (S)-5-benzyl-N-(5,6-dihydro-4H-benzo[f][1,2,4]triazolo[4,3-a]azepin-4-yl)-4H-1,2,4-triazole-3-carboxamide] has an IC50 of 0.1 to 1000 nM. `O=C(N[C@H]1CCc2ccccc2-n2cnnc21)c1cc(Cc2ccccc2)on1` [Example 71A, (S)-5-benzyl-N-(5,6-dihydro-4H-benzo[f][11,2,4]triazolo[4,3-a]azepin-4-yl)isoxazole-3-carboxamide] was tested, and the IC50 was 0.1 to 1000 nM. `CN1C(=O)[C@@H](NC(=O)c2cc(C3(c4ccccc4)CC3)[nH]n2)COc2ccccc21` [Example 72, (S)—N-(5-methyl-4-oxo-2,3,4,5-tetrahydrobenzo[b][1,4]oxazepin-3-yl)-5-(1-phenylcyclopropyl)-1H-pyrazole-3-carboxamide] showed an IC50 of 0.1 to 1000 nM. `CN1C(=O)[C@@H](NC(=O)c2cc(C3(c4ccccc4)CC3)[nH]n2)COc2cccnc21` [Example 73, (S)—N-(5-methyl-4-oxo-2,3,4,5-tetrahydropyrido[3,2-b][1,4]oxazepin-3-yl)-5-(1-phenylcyclopropyl)-1H-pyrazole-3-carboxamide] showed an IC50 of 0.1 to 1000 nM. `CN1C(=O)[C@@H](NC(=O)c2nn(Cc3ccccn3)cc2F)COc2cccnc21` [Example 74, (S)-4-fluoro-N-(5-methyl-4-oxo-2,3,4,5-tetrahydropyrido[3,2-b][1,4]oxazepin-3-yl)-1-(pyridin-2-ylmethyl)-1H-pyrazole-3-carboxamide] was tested, and the IC50 was 0.1 to 1000 nM. With `CN1C(=O)[C@@H](NC(=O)c2nn(Cc3ccccc3)cc2F)COc2cccnc21` [Example 76, (S)-1-benzyl-4-fluoro-N-(5-methyl-4-oxo-2,3,4,5-tetrahydropyrido[3,2-b][1,4]oxazepin-3-yl)-1H-pyrazole-3-carboxamide] the IC50 was 0.1 to 1000 nM. For `CN1C(=O)[C@@H](NC(=O)c2ncc(C3(c4ccccc4)CC3)[nH]2)COc2ccccc21` [Example 78, (S)—N-(5-methyl-4-oxo-2,3,4,5-tetrahydrobenzo[b][1,4]oxazepin-3-yl)-5-(1-phenylcyclopropyl)-1H-imidazole-2-carboxamide], the IC50 was 0.1 to 1000 nM. `CN1C(=O)[C@@H](NC(=O)c2nc3cccc(-c4ccccc4F)c3s2)COc2ccccc21` [Example 79, (S)-7-(2-fluorophenyl)-N-(5-methyl-4-oxo-2,3,4,5-tetrahydrobenzo[b][1,4]oxazepin-3-yl)benzo[d]thiazole-2-carboxamide] showed an IC50 of 0.1 to 1000 nM. Compound `CN1C(=O)[C@@H](NC(=O)c2cc(Cc3ccccc3)[nH]n2)[C@H]2C[C@H]2c2cccnc21` [Example 80A, 5-benzyl-N-((1aS,2S,8bR)-4-methyl-3-oxo-1,1a,2,3,4,8b-hexahydrocyclopropa[d]pyrido[2,3-b]azepin-2-yl)-1H-pyrazole-3-carboxamide] has an IC50 of 0.1 to 1000 nM. `CN1C(=O)[C@@H](NC(=O)c2cc(Cc3ccccc3)on2)[C@H]2C[C@H]2c2cccnc21` [Example 81A, 5-benzyl-N-((1aS,2S,8bR)-4-methyl-3-oxo-1,1a,2,3,4,8b-hexahydrocyclopropa[d]pyrido[2,3-b]azepin-2-yl)isoxazole-3-carboxamide] was tested, and the IC50 was 0.1 to 1000 nM. For `CN1C(=O)[C@@H](NC(=O)c2nn(Cc3ccccc3)cc2F)[C@H]2C[C@H]2c2cccnc21` [Example 82A, 1-benzyl-4-fluoro-N-((1aS,2S,8bR)-4-methyl-3-oxo-1,1a,2,3,4,8b-hexahydrocyclopropa[d]pyrido[2,3-b]azepin-2-yl)-1H-pyrazole-3-carboxamide], the IC50 was 0.1 to 1000 nM. `CN1C(=O)[C@@H](NC(=O)c2nc3cccc(-c4ccccc4)c3s2)COc2ccccc21` [Example 84, (S)—N-(5-methyl-4-oxo-2,3,4,5-tetrahydrobenzo[b][1,4]oxazepin-3-yl)-7-phenylbenzo[d]thiazole-2-carboxamide] showed an IC50 of 0.1 to 1000 nM. Compound `CN1C(=O)[C@@H](NC(=O)c2nnc(Cc3ccccc3)s2)COc2cccnc21` [Example 85, (S)-5-benzyl-N-(5-methyl-4-oxo-2,3,4,5-tetrahydropyrido[3,2-b][1,4]oxazepin-3-yl)-1,3,4-thiadiazole-2-carboxamide] has an IC50 of 0.1 to 1000 nM. For `CN1C(=O)[C@@H](NC(=O)c2ncc(Cc3ccccc3)s2)COc2cccnc21` [Example 86, (S)-5-benzyl-N-(5-methyl-4-oxo-2,3,4,5-tetrahydropyrido[3,2-b][1,4]oxazepin-3-yl)thiazole-2-carboxamide], the IC50 was 0.1 to 1000 nM. With `CN1C(=O)[C@@H](NC(=O)c2cnc(C3(c4ccccc4)CC3)[nH]2)COc2ccccc21` [Example 88, (S)—N-(5-methyl-4-oxo-2,3,4,5-tetrahydrobenzo[b][1,4]oxazepin-3-yl)-2-(1-phenylcyclopropyl)-1H-imidazole-5-carboxamide] the IC50 was 1000 to 10000 nM. `O=C(N[C@@H]1C(=O)Nc2c(F)cc(F)cc2[C@@H]2C[C@H]12)c1nnc(Cc2ccccc2)o1` [Example 89B, 5-benzyl-N-((1aS,2S,8bR)-5,7-difluoro-3-oxo-1,1a,2,3,4,8b-hexahydrobenzo[b]cyclopropa[d]azepin-2-yl)-1,3,4-oxadiazole-2-carboxamide] gave an IC50 of 0.1 to 1000 nM. In the case of `O=C(N[C@@H]1C(=O)Nc2c(F)cc(F)cc2[C@@H]2C[C@H]12)c1cn(Cc2ccccc2)nn1` [Example 90B, 1-benzyl-N-((1aS,2S,8bR)-5,7-difluoro-3-oxo-1,1a,2,3,4,8b-hexahydrobenzo[b]cyclopropa[d]azepin-2-yl)-1H-1,2,3-triazole-4-carboxamide], the IC50 is reported as 0.1 to 1000 nM. In the case of `[2H]C([2H])([2H])N1C(=O)[C@@H](NC(=O)c2nnc(C3(c4ccccc4)CC3)o2)COc2cccnc21` [Example 173, (S)—N-(5-trideuteriomethyl-4-oxo-2,3,4,5-tetrahydropyrido[3,2-b][1,4]oxazepin-3-yl)-5-(1-phenylcyclopropyl)-1,3,4-oxadiazole-2-carboxamide], the IC50 is reported as 0.1 to 1000 nM. For `[2H]C([2H])([2H])N1C(=O)[C@@H](NC(=O)c2nn(Cc3ccccc3)cc2F)COc2cccnc21` [Example 175, (S)-1-benzyl-4-fluoro-N-(5-trideuteriomethyl-4-oxo-2,3,4,5-tetrahydropyrido[3,2-b][1,4]oxazepin-3-yl)-1H-pyrazole-3-carboxamide], the IC50 was 0.1 to 1000 nM. In the case of `CN1C(=O)[C@@H](NC(=O)c2nn(Cc3cocn3)cc2F)COc2cccnc21` [Example 209, (S)-4-fluoro-N-(5-methyl-4-oxo-2,3,4,5-tetrahydropyrido[3,2-b][1,4]oxazepin-3-yl)-1-(oxazol-4-ylmethyl)-1H-pyrazole-3-carboxamide], the IC50 is reported as 0.1 to 1000 nM. For `CN1C(=O)[C@@H](NC(=O)c2nn(Cc3ccc(F)cn3)cc2F)COc2ccccc21` [Example 214, (S)-4-fluoro-1-((5-fluoropyridin-2-yl)methyl)-N-(5-methyl-4-oxo-2,3,4,5-tetrahydrobenzo[b][1,4]oxazepin-3-yl)-1H-pyrazole-3-carboxamide], the IC50 was 0.1 to 1000 nM. `CN1C(=O)[C@@H](NC(=O)c2noc(Cc3ccccc3)n2)COc2cccnc21` [Example 215, (S)-5-benzyl-N-(5-methyl-4-oxo-2,3,4,5-tetrahydropyrido[3,2-b][1,4]oxazepin-3-yl)-1,2,4-oxadiazole-3-carboxamide] gave an IC50 of 0.1 to 1000 nM. `CN1C(=O)[C@@H](NC(=O)c2nn(Cc3ccc(Cl)cn3)cc2F)COc2ccccc21` [Example 216, (S)-1-((5-chloropyridin-2-yl)methyl)-4-fluoro-N-(5-methyl-4-oxo-2,3,4,5-tetrahydrobenzo[b][1,4]oxazepin-3-yl)-1H-pyrazole-3-carboxamide] showed an IC50 of 0.1 to 1000 nM. Compound `C[C@H]1Oc2cccnc2N(C)C(=O)[C@H]1NC(=O)c1nnc(Cc2ccccc2)s1` [Example 217, 5-benzyl-N-((2R,3S)-2,5-dimethyl-4-oxo-2,3,4,5-tetrahydropyrido[3,2-b][1,4]oxazepin-3-yl)-1,3,4-thiadiazole-2-carboxamide] has an IC50 of 0.1 to 1000 nM. Work on `CN1C(=O)[C@@H](NC(=O)c2nnc(Cc3ccccc3)[nH]2)[C@H]2C[C@H]2c2cc(C#N)cnc21` [Example 218, 5-benzyl-N-((1aS,2S,8bR)-7-cyano-4-methyl-3-oxo-1,1a,2,3,4,8b-hexahydrocyclopropa[d]pyrido[2,3-b]azepin-2-yl)-4H-1,2,4-triazole-3-carboxamide] yielded an IC50 of 0.1 to 1000 nM. `CN1C(=O)[C@@H](NC(=O)c2ncc(Cc3cccc(C#N)c3)s2)CCc2cccnc21` [Example 219, (S)-5-(3-cyanobenzyl)-N-(9-methyl-8-oxo-6,7,8,9-tetrahydro-5H-pyrido[2,3-b]azepin-7-yl)thiazole-2-carboxamide] showed an IC50 of 0.1 to 1000 nM. Compound `COc1cccc(Cn2cc(F)c(C(=O)N[C@H]3COc4ccccc4N(C)C3=O)n2)n1` [Example 220, (S)-4-fluoro-1-((6-methoxypyridin-2-yl)methyl)-N-(5-methyl-4-oxo-2,3,4,5-tetrahydrobenzo[b][1,4]oxazepin-3-yl)-1H-pyrazole-3-carboxamide] has an IC50 of 0.1 to 1000 nM. Work on `C[C@H]1Oc2cccnc2N(C)C(=O)[C@H]1NC(=O)c1nnc(C(F)(F)c2ccccc2)o1` [Example 221, 5-(difluoro(phenyl)methyl)-N-((2R,3S)-2,5-dimethyl-4-oxo-2,3,4,5-tetrahydropyrido[3,2-b][1,4]oxazepin-3-yl)-1,3,4-oxadiazole-2-carboxamide] yielded an IC50 of 0.1 to 1000 nM. For `C[C@H]1Oc2cccnc2N(C)C(=O)[C@H]1NC(=O)c1noc(Cc2ccccc2)n1` [Example 222, 5-benzyl-N-((2R,3S)-2,5-dimethyl-4-oxo-2,3,4,5-tetrahydropyrido[3,2-b][1,4]oxazepin-3-yl)-1,2,4-oxadiazole-3-carboxamide], the IC50 was 0.1 to 1000 nM. For `CN1C(=O)[C@@H](NC(=O)c2nnc(Cc3ccc(F)cc3)o2)[C@H]2C[C@H]2c2nccnc21` [Example 223, 5-(4-fluorobenzyl)-N-((7S,7aS,8aR)-5-methyl-6-oxo-5,6,7,7a,8,8a-hexahydrocyclopropa[d]pyrazino[2,3-b]azepin-7-yl)-1,3,4-oxadiazole-2-carboxamide], the IC50 was 0.1 to 1000 nM. `CN1C(=O)[C@@H](NC(=O)c2nn(Cc3ncccn3)cc2F)COc2ccccc21` [Example 224, (S)-4-fluoro-N-(5-methyl-4-oxo-2,3,4,5-tetrahydrobenzo[b][1,4]oxazepin-3-yl)-1-(pyrimidin-2-ylmethyl)-1H-pyrazole-3-carboxamide] showed an IC50 of 0.1 to 1000 nM.
